{
  "source": "patent US11116745B2",
  "about": "“Prebiotic formulation” (Deep Cell Industries, Inc., priority 2018, dated 2021)",
  "origin": "cited, not measured here",
  "key": {"enteric glial cells": {"tested_on": "enteric glial cells", "conditions": "over active enteric glial cells"}, "cannabinoid CB2 receptor": {"target": "cannabinoid CB2 receptor (Homo sapiens, UniProt P34972)", "sequence (P34972 whole entry)": "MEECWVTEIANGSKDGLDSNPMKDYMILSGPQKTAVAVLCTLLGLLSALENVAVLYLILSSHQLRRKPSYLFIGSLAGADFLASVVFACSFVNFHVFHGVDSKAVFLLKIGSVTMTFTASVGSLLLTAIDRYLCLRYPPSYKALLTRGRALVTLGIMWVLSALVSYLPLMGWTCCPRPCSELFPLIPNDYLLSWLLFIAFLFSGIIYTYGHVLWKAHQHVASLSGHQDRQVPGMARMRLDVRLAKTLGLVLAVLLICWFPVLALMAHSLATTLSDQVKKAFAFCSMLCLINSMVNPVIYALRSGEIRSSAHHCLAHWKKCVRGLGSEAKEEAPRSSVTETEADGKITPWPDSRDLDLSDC"}, "[1]": {"assay": "not given", "remark": "listed apart in the source"}},
  "data": [
    {"smiles": "C=C(C)[C@@H]1CCC(C)=C[C@H]1c1c(O)cc(CCCCC)cc1O", "note": "[Cannabidiol]", "values": [
      {"measurement": "expression of S100B and iNOS proteins", "setting": "enteric glial cells", "value": "reduce"},
      {"measurement": "affinity for the cannabinoid CB2 receptor", "setting": "cannabinoid CB2 receptor", "value": "very low affinity"},
      {"measurement": "oral bioavailability (absorption)", "value": "13-19%"},
      {"measurement": "solubility", "setting": "[1]", "value": "low"}
    ]}
  ]
}
